Test results published in patent US20260217983A1, “SULFONIUM SALT PHOTOINITIATORS AND METHODS OF LED CURING A COMPOSITION WITH SAID SULFONIUM SALT PHOTOINITIATORS” (ARKEMA FRANCE, priority 2022, published 2026).

Assays:
[1] = Molar extinction coefficient in acetonitrile; type: physicochemical
Experimental: (§1) The curing performance of individual products prepared above was assessed using real time FT-IR measurement. The photoinitiators were dissolved in cycloaliphatic epoxy resin UViCure S105 (available from Sartomer) at the indicated wt % loading, applied onto the FT-IR measurement plate and irradiated with the indicated LED light source. The polymerization rate and final reactive group conversion were determined by monitoring the change of the relevant infrared band near 900 cm^−1 corresponding to an epoxide ring during irradiation. The molar extinction coefficients for the photoinitiator products (ε, expressed in M^−1 cm^−1) were determined in acetonitrile at 10^-3 M or 10^-5 M concentration.

[2] = Real time FT-IR curing performance in UViCure S105 at 365 and 385 nm; details: for Polymerization rate Rp/[M0]*100 / Final conversion: UViCure S105, 20 μm thickness, under air; for Final conversion: epoxide band; for cure speed compared with photoinitiators known from prior art such as Omnicat BL 550: LED lamp conditions, Example 2
Experimental: as §1

[3] = Real time FT-IR curing performance at 405 nm in UViCure S105/TMPTA (1:1); details: LED @405 nm (110 mW/cm^2), 20 μm thickness, laminated
Experimental: (§2) The curing performance of individual products prepared above was assessed using real time FT-IR measurement. The photoinitiators were dissolved either in neat trimethylolpropane triacrylate (TMPTA; available as SR351 from Sartomer) or in a 1:1 (w/w) mixture of TMPTA and UViCure S105 as indicated, applied onto the FT-IR measurement plate, laminated to prevent oxygen inhibition, and irradiated with the indicated LED light source. For the epoxy component, the polymerization rate and final reactive group conversion were determined by monitoring the change of the relevant infrared band near 900 cm^−1 corresponding to an epoxide ring. For the acrylate component, the C═C stretch band near 1625 cm^−1 was used.

[4] = Real time FT-IR curing performance at 405 nm in neat TMPTA; details: 20 μm thickness, laminated; for Acrylate Polymerization rate Rp/[M0]*100: LED @405 nm (110 W/cm^2); for Acrylate Final conversion: LED @405 nm (110 mW/cm^2)
Experimental: as §2

[5] = Colour index 'b' of formulations before and after polymerization; type: physicochemical; details: UViCure S105E, thin samples (20 μm), under air, 300 s irradiation
Experimental: The low yellowing characteristics can be measured by the Colour index ‘b’ value on cured films.
Formulations comprising the photoinitiators and neat UViCure S105E resin were prepared as described at example 2.

[6] = Belt curing performance (thumb-twist depth cure) in UViCure S105E resin; details: 24 μm film, under air, PI 2 wt %
Experimental: (§3) The photoinitiators were dissolved either in neat UViCure S105E resin or a hybrid acrylate/epoxy resin (prepared by mixing 60 wt parts UViCure S105E, 15 wt parts UViCure S130 and 25 wt parts SR492; all product are available from Sartomer). Formulations were prepared by combining all materials in the given proportions and then stirring at 30-40° C. until the samples were fully homogeneous; the formulations were then allowed to cool to room temperature. For all experiments, the formulations were cured on Leneta Form 3N-31 gloss finish paper at 6 μm and 24 μm film thickness using a belt-cure instrument; the films were prepared using a K-bar. All films were then cured under an LED lamp at a given belt speed. ‘Depth cure’ for each formulation was assessed using the ‘thumb-twist’ test (where no visible mark is made when a thumb is pressed down firmly onto the coating with a twisting motion), and from the belt speed; the calculated cure speed (in m/min) is given.

[7] = Belt curing performance (thumb-twist depth cure) in hybrid acrylate/epoxy resin; details: 24 μm film, under air, PI 2 wt %
Experimental: as §3

[8] = LED @365 nm (120 W/cm^2), PI loading 1 wt % (Omnicat BL 550 4 wt %; Speedcure 938/CPTX 1/0.5 wt %)
[9] = LED 365 nm, 100% intensity (=70.1 mJ/cm^2), belt speed 40 m/min

| Structure (SMILES) | ε at 365 nm [1] [M⁻¹ cm⁻¹] | ε at 385 nm [1] [M⁻¹ cm⁻¹] | Polymerization rate Rp/[M0]*100 [2, 8] [s⁻¹] | Final conversion ([2]; LED @365 nm (120 W/cm^2)) [%] | Polymerization rate Rp/[M0]*100 ([2]; LED @385 nm (160 W/cm^2)) [s⁻¹] | Final conversion ([2]; LED @385 nm (160 W/cm^2)) [%] | further results |
| --- | --- | --- | --- | --- | --- | --- | --- |
| CCc1cc(CC)c2sc3ccc(-[s+]4c5ccccc5c(=O)c5cc(CC)cc(CC)c54)cc3c(=O)c2c1 (stereo not shown) [Photoinitiator 40, 10-(5,7-diethyl-9-oxo-9H-thioxanthen-2-yl)-2,4-diethyl-9-oxo-9H-thioxanthen-10-ium Hexafluorophosphate] | 19117 | 15504 | 2.72 | 18 | 5.89 | 38 | Acrylate Final conversion [3]: 83%; Acrylate Polymerization rate Rp/[M0]*100 [3]: 10.81 s⁻¹; Epoxy Final conversion [3]: 52%; Epoxy Polymerization rate Rp/[M0]*100 [3]: 6.46 s⁻¹; Acrylate Polymerization rate Rp/[M0]*100 [4]: 5.86 s⁻¹; Acrylate Final conversion [4]: 65% |
| CC(C)c1ccc2c(c1)c(=O)c1ccccc1[s+]2-c1ccc(Oc2ccccc2)cc1 (stereo not shown) [Photoinitiator 12, 9-oxo-10-(4-phenoxyphenyl)-2-(propan-2-yl)-9H-thioxanthen-10-ium Hexafluorophosphate] | 185 | 137 | 2.93 | 32 | 2.74 | 36 |  |
| COc1ccccc1-c1cc(-[s+]2c3ccccc3c(=O)c3cc(C(C)C)ccc32)ccc1OC (stereo not shown) [Photoinitiator 28, 10-(2′,6-dimethoxy[1,1′-biphenyl]-3-yl)-9-oxo-2-(propan-2-yl)-9H-thioxanthen-10-ium hexafluorophosphate] | 426 | 268 | 2.29 | 34 | 5.78 | 36 |  |
| CCCOc1ccc(Cl)c2c(=O)c3ccccc3[s+](-c3ccc(-c4ccc(OC)cc4)cc3)c12 (stereo not shown) [Photoinitiator 32, 1-chloro-10-(4′-methoxy[1,1′-biphenyl]-4-yl)-9-oxo-4-propoxy-9H-thioxanthen-10-ium Hexafluorophosphate] | 4507 | 2055 | 3.73 | 28 | 4.86 | 33 | cure speed compared with photoinitiators known from prior art such as Omnicat BL 550 [2]: higher cure speed |
| COC(=O)COc1ccc2sc3ccc(-[s+]4c5ccccc5c(=O)c5cc(OCC(=O)OC)ccc54)cc3c(=O)c2c1 (stereo not shown) [Photoinitiator 6, 2-(2-methoxy-2-oxoethoxy)-10-[7-(2-methoxy-2-oxoethoxy)-9-oxo-9H-thioxanthen-2-yl]-9-oxo-9H-thioxanthen-10-ium Hexafluorophosphate] | 18314 | 24656 | 0.72 | 35 | 2.01 | 36 |  |
| CCCOc1ccc(Cl)c2c1[SH](c1ccc(Oc3ccccc3)cc1)c1ccccc1C2=O (stereo not shown) [Photoinitiator 16, 1-chloro-9-oxo-10-(4-phenoxyphenyl)-4-propoxy-9H-thioxanthen-10-ium hexafluorophosphate] | 20030 | 6830 | 2.88 | 40 | 3.71 | 38 |  |
| CCCOc1ccc(Cl)c2c(=O)c3cc([S+](c4ccc(C)cc4)c4ccc(C(=O)c5ccccc5)cc4)ccc3sc12 (stereo not shown) [Photoinitiator 3, (4-benzoylphenyl)(8-chloro-9-oxo-5-propoxy-9H-thioxanthen-2-yl)(4-methylphenyl)sulfonium hexafluorophosphate] | 17066 | 17083 | 2.70 | 38 | 2.46 | 37 | Colour index ‘b’ value After Polymerization ([5]; LED @365 nm (120 mW/cm^2)): 7.40; Colour index ‘b’ value Before Polymerization ([5]; LED @365 nm (120 mW/cm^2)): 11.28; Colour index ‘b’ value After Polymerization ([5]; LED @385 nm (160 mW/cm^2)): 7.48; Colour index ‘b’ value Before Polymerization ([5]; LED @385 nm (160 mW/cm^2)): 8.40; Cure speed in UViCure S105E resin [6, 9]: 4.8 m/min; Cure speed in UViCure S105E resin ([6]; LED 395 nm, 40 m/min, 100% intensity (=164.5 mJ/cm^2)): 8.7 m/min; Acrylate Final conversion [3]: 75%; Acrylate Polymerization rate Rp/[M0]*100 [3]: 5.69 s⁻¹; Epoxy Final conversion [3]: 35%; Epoxy Polymerization rate Rp/[M0]*100 [3]: 2.43 s⁻¹; Acrylate Polymerization rate Rp/[M0]*100 [4]: 5.88 s⁻¹; Acrylate Final conversion [4]: 45%; Cure speed in hybrid acrylate/epoxy resin [7, 9]: 2.2 m/min; Cure speed in hybrid acrylate/epoxy resin ([7]; LED 395 nm, 80 m/min, 50% intensity (=36.9 mJ/cm^2)): no cure |
| COc1ccc(-c2ccc(-[s+]3c4ccccc4c(=O)c4cc(C(C)C)ccc43)cc2)cc1 (stereo not shown) [Photoinitiator 26, 10-(4′-methoxy[1,1-biphenyl]-4-yl)-9-oxo-2-(propan-2-yl)-9H-thioxanthen-10-ium hexafluorophosphate] | 3600 | 1622 | 4.94 | 26 | 3.08 | 28 | cure speed compared with photoinitiators known from prior art such as Omnicat BL 550 [2]: higher cure speed |
